{"source": "paper PMC7247680", "about": "“Novel Indole-Based Hydrazones as Potent Inhibitors of the α-class Carbonic Anhydrase from Pathogenic Bacterium Vibrio cholerae” (International Journal of Molecular Sciences, 2020)", "data": [{"molecular_target": "T1, VcCA (α-class carbonic anhydrase from Vibrio cholerae) (Vibrio cholerae, UniProt Q9KMP6)", "T1 construct": "gene VC_A0274", "T1 sequence (Q9KMP6 21-239 limits assumed)": "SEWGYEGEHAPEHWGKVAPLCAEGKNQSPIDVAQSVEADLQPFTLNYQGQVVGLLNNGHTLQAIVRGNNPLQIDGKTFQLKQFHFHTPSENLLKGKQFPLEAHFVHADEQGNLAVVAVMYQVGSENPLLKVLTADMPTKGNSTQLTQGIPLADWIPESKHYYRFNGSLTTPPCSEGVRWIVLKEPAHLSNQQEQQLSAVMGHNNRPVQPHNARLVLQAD", "assay": "stopped-flow CO2 hydration assay, Cheng-Prusoff", "assay_type": "biochemical", "conditions": "read-out: KI * (nM) / VcCA; CO2 substrate, pH 7.4, 10 mM Hepes, 0.1 M NaClO4, 25 °C, 15 min pre-incubation", "units": {"Ki": "nM"}, "values": [{"compound": "NS(=O)(=O)c1ccc2[nH]c(C(=O)NN=Cc3cccs3)c(-c3ccccc3)c2c1", "note": "[compound 4, 4 (R = H, R1 = thiophen-2-yl)]", "Ki": 80.4}, {"compound": "NS(=O)(=O)c1ccc2[nH]c(C(=O)NN=Cc3ccc(Br)s3)c(-c3ccccc3)c2c1", "note": "[compound 5, 5 (R = H, R1 = 5-Br-thiophen-2-yl)]", "Ki": 94.8}, {"compound": "Cn1cccc1C=NNC(=O)c1[nH]c2ccc(S(N)(=O)=O)cc2c1-c1ccccc1", "note": "[compound 6, 6 (R = H, R1 = 1-CH3-pyrrol-2-yl)]", "Ki": 74.1}, {"compound": "NS(=O)(=O)c1ccc2[nH]c(C(=O)NN=Cc3cccnc3)c(-c3ccccc3)c2c1", "note": "[compound 7, 7 (R = H, R1 = pyridin-3-yl)]", "Ki": 74.2}, {"compound": "NS(=O)(=O)c1ccc2[nH]c(C(=O)NN=Cc3ccncc3)c(-c3ccccc3)c2c1", "note": "[compound 8, 8 (R = H, R1 = pyridin-4-yl)]", "Ki": 72.1}, {"compound": "NS(=O)(=O)c1ccc2[nH]c(C(=O)NN=Cc3c[nH]c4ccccc34)c(-c3ccccc3)c2c1", "note": "[compound 9, 9 (R = H, R1 = indol-3-yl)]", "Ki": 60.5}, {"compound": "C=NNC(=O)c1[nH]c2ccc(S(N)(=O)=O)cc2c1-c1ccccc1", "note": "[compound 10, 10 (R = H, R1 = H)]", "Ki": 46.6}, {"compound": "CC=NNC(=O)c1[nH]c2ccc(S(N)(=O)=O)cc2c1-c1ccccc1", "note": "[compound 11, 11 (R = H, R1 = CH3)]", "Ki": 27.1}, {"compound": "CC(C)=NNC(=O)c1[nH]c2ccc(S(N)(=O)=O)cc2c1-c1ccccc1", "note": "[compound 12, 12 (R = CH3, R1 = CH3)]", "Ki": 22.8}, {"compound": "CC(CC(C)C)=NNC(=O)c1[nH]c2ccc(S(N)(=O)=O)cc2c1-c1ccccc1", "note": "[compound 15, 15 (R = CH3, R1 = isobutyl)]", "Ki": 79.6}, {"compound": "NS(=O)(=O)c1ccc2[nH]c(C(=O)NN=C3CCCC3)c(-c3ccccc3)c2c1", "note": "[compound 16, 16 (R/R1 = cyclopentyl)]", "Ki": 68}, {"compound": "NS(=O)(=O)c1ccc2[nH]c(C(=O)NN=C3CCCCC3)c(-c3ccccc3)c2c1", "note": "[compound 17, 17 (R/R1 = cyclohexyl)]", "Ki": 81.4}, {"compound": "CC1CCC(=NNC(=O)c2[nH]c3ccc(S(N)(=O)=O)cc3c2-c2ccccc2)CC1", "note": "(stereo not shown) [compound 18, 18 (R/R1 = 4-methylcyclohexyl)]", "Ki": 71.4}, {"compound": "CCC1CCC(=NNC(=O)c2[nH]c3ccc(S(N)(=O)=O)cc3c2-c2ccccc2)CC1", "note": "(stereo not shown) [compound 19, 19 (R/R1 = 4-ethylcyclohexyl)]", "Ki": 62.1}, {"compound": "CCCC1CCC(=NNC(=O)c2[nH]c3ccc(S(N)(=O)=O)cc3c2-c2ccccc2)CC1", "note": "(stereo not shown) [compound 20, 20 (R/R1 = 4-propylcyclohexyl)]", "Ki": 67.5}, {"compound": "NS(=O)(=O)c1ccc2[nH]c(C(=O)NN=C3CCC(c4ccccc4)CC3)c(-c3ccccc3)c2c1", "note": "(stereo not shown) [compound 21, 21 (R/R1 = 4-phenylcyclohexyl)]", "Ki": 52.1}, {"compound": "CC(C)(C)C1CCC(=NNC(=O)c2[nH]c3ccc(S(N)(=O)=O)cc3c2-c2ccccc2)CC1", "note": "(stereo not shown) [compound 22, 22 (R/R1 = 4-tert-butylcyclohexyl)]", "Ki": 34.1}, {"compound": "CN1CCC(=NNC(=O)c2[nH]c3ccc(S(N)(=O)=O)cc3c2-c2ccccc2)CC1", "note": "[compound 23, 23 (R/R1 = 1-methylpiperidin-4-yl)]", "Ki": 25.2}, {"compound": "NS(=O)(=O)c1ccc2[nH]c(C(=O)NN=C3CCN(Cc4ccccc4)CC3)c(-c3ccccc3)c2c1", "note": "[compound 24, 24 (R/R1 = 1-benzylpiperidin-4-yl)]", "Ki": 92.4}]}]}
